Data published in PubChem BioAssay AID1963420 (Molecular Pharmacology Branch, DTP, NCI, 2024).
pIC50: −log10 of the molar value.

Tested on: 494315-158-R-J1-PDC complex spheroid growth, percent test/control
Experiment: Anticancer human tumor 494315-158-R-J1-PDC patient-derived soft tissue sarcoma cell line growth inhibition [Asc]
Details: for pIC50: curve of first compound; for viability, T/C: stronger effect = lower value
Procedure, shortened: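 Tumor cells were grown as complex spheroids with human endothelial cells (HUVEC) and human mesenchymal stem cells as stroma. Agents were tested alone and in combination, in half-log steps down from the clinical Cmax, or from 10 microM where Cmax was unknown.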
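Also: compound exposure lasted seven days after spheroids formed for three days.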

NC(=O)C(=Cn1cnc(-c2cc(C(F)(F)F)cc(C(F)(F)F)c2)n1)c1cncnc1 + Cc1c(S(C)(=O)=O)c(-c2cc(F)cc(N3CCN(c4ccc(NS(=O)(=O)c5ccc(NC(CCN6CCC(C(=O)OCCCP(=O)(O)O)CC6)CSc6ccccc6)c(S(=O)(=O)C(F)(F)F)c5)cc4)CC3)c2)c(-c2ccc(Cl)cc2)n1C(C)C was tested, and the pIC50 (second compound 0.1 µM) was 7.63, the pIC50 (second compound 0.316 µM) was 7.91 and the pIC50 (second compound 1 µM) was 8.18. The pIC50 (second compound 3.16 µM) was 8.50, the pIC50 (second compound 10 µM) was 8.00 and the viability, T/C (second compound 0.1 µM, first compound 0.000949 µM) was 79.5%. The viability, T/C (second compound 0.1 µM, first compound 0.003 µM) was 82.6%, the viability, T/C (second compound 0.1 µM, first compound 0.00949 µM) was 66.8% and the viability, T/C (second compound 0.1 µM, first compound 0.03 µM) was 44.9%. It also gave a viability, T/C (second compound 0.1 µM, first compound 0.0949 µM) of 19.2%, a viability, T/C (second compound 0.1 µM, first compound 0.3 µM) of 6.1% and a viability, T/C (second compound 0.316 µM, first compound 0.000949 µM) of 72.7%. The viability, T/C (second compound 0.316 µM, first compound 0.003 µM) was 65.4%, the viability, T/C (second compound 0.316 µM, first compound 0.00949 µM) was 51.3% and the viability, T/C (second compound 0.316 µM, first compound 0.03 µM) was 40.7%. It also gave a viability, T/C (second compound 0.316 µM, first compound 0.0949 µM) of 23.2%, a viability, T/C (second compound 0.316 µM, first compound 0.3 µM) of 4.23% and a viability, T/C (second compound 1 µM, first compound 0.000949 µM) of 53.7%. For the same molecule, the viability, T/C (second compound 1 µM, first compound 0.003 µM) was 57.8%, the viability, T/C (second compound 1 µM, first compound 0.00949 µM) was 46.2% and the viability, T/C (second compound 1 µM, first compound 0.03 µM) was 35.1%. The viability, T/C (second compound 1 µM, first compound 0.0949 µM) was 16.3%, the viability, T/C (second compound 1 µM, first compound 0.3 µM) was 4.03% and the viability, T/C (second compound 3.16 µM, first compound 0.000949 µM) was 52.2%. It also gave a viability, T/C (second compound 3.16 µM, first compound 0.003 µM) of 52.2%, a viability, T/C (second compound 3.16 µM, first compound 0.00949 µM) of 41.8% and a viability, T/C (second compound 3.16 µM, first compound 0.03 µM) of 24%. It also gave a viability, T/C (second compound 3.16 µM, first compound 0.0949 µM) of 12.9%, a viability, T/C (second compound 3.16 µM, first compound 0.3 µM) of 2.93% and a viability, T/C (second compound 10 µM, first compound 0.000949 µM) of 67.4%. It also gave a viability, T/C (second compound 10 µM, first compound 0.003 µM) of 58%, a viability, T/C (second compound 10 µM, first compound 0.00949 µM) of 54.7% and a viability, T/C (second compound 10 µM, first compound 0.03 µM) of 29.2%. It also gave a viability, T/C (second compound 10 µM, first compound 0.0949 µM) of 14.8% and a viability, T/C (second compound 10 µM, first compound 0.3 µM) of 2.12%.
With NC1CCC(NC2CC2c2ccccc2)CC1 (stereo not given) + Cc1c(S(C)(=O)=O)c(-c2cc(F)cc(N3CCN(c4ccc(NS(=O)(=O)c5ccc(NC(CCN6CCC(C(=O)OCCCP(=O)(O)O)CC6)CSc6ccccc6)c(S(=O)(=O)C(F)(F)F)c5)cc4)CC3)c2)c(-c2ccc(Cl)cc2)n1C(C)C the pIC50 (second compound 0.1 µM) was less than 7.00, the pIC50 (second compound 0.316 µM) was less than 7.00 and the pIC50 (second compound 1 µM) was 8.03. For the same molecule, the pIC50 (second compound 3.16 µM) was 9.47, the pIC50 (second compound 10 µM) was less than 7.00 and the viability, T/C (second compound 0.1 µM, first compound 0.000316 µM) was 72.5%. It also gave a viability, T/C (second compound 0.1 µM, first compound 0.001 µM) of 71.3%, a viability, T/C (second compound 0.1 µM, first compound 0.00316 µM) of 78.8% and a viability, T/C (second compound 0.1 µM, first compound 0.01 µM) of 68.5%. The viability, T/C (second compound 0.1 µM, first compound 0.0316 µM) was 74.6%, the viability, T/C (second compound 0.1 µM, first compound 0.1 µM) was 72.9% and the viability, T/C (second compound 0.316 µM, first compound 0.000316 µM) was 56.4%. The viability, T/C (second compound 0.316 µM, first compound 0.001 µM) was 61.5%, the viability, T/C (second compound 0.316 µM, first compound 0.00316 µM) was 61% and the viability, T/C (second compound 0.316 µM, first compound 0.01 µM) was 57.6%. The viability, T/C (second compound 0.316 µM, first compound 0.0316 µM) was 64.5%, the viability, T/C (second compound 0.316 µM, first compound 0.1 µM) was 61.8% and the viability, T/C (second compound 1 µM, first compound 0.000316 µM) was 53.3%. The viability, T/C (second compound 1 µM, first compound 0.001 µM) was 67.5%, the viability, T/C (second compound 1 µM, first compound 0.00316 µM) was 61.7% and the viability, T/C (second compound 1 µM, first compound 0.01 µM) was 47.9%. It also gave a viability, T/C (second compound 1 µM, first compound 0.0316 µM) of 44.4%, a viability, T/C (second compound 1 µM, first compound 0.1 µM) of 55.6% and a viability, T/C (second compound 3.16 µM, first compound 0.000316 µM) of 49.9%. For the same molecule, the viability, T/C (second compound 3.16 µM, first compound 0.001 µM) was 47.4%, the viability, T/C (second compound 3.16 µM, first compound 0.00316 µM) was 43.6% and the viability, T/C (second compound 3.16 µM, first compound 0.01 µM) was 43%. It also gave a viability, T/C (second compound 3.16 µM, first compound 0.0316 µM) of 39.8%, a viability, T/C (second compound 3.16 µM, first compound 0.1 µM) of 47.5% and a viability, T/C (second compound 10 µM, first compound 0.000316 µM) of 58%. The viability, T/C (second compound 10 µM, first compound 0.001 µM) was 58.6%, the viability, T/C (second compound 10 µM, first compound 0.00316 µM) was 57.9% and the viability, T/C (second compound 10 µM, first compound 0.01 µM) was 57.6%. It also gave a viability, T/C (second compound 10 µM, first compound 0.0316 µM) of 57.1% and a viability, T/C (second compound 10 µM, first compound 0.1 µM) of 56%.
